# Results from patent publication US20130059783A1, “COMPOSITIONS AND METHODS FOR EXPANDING BFU-E CELLS” (priority 2010, published 2013).
# Tests used:
# Format in all cases: cell-based, mouse
# BFU-E cells [1] = experiment: Serum free erythroid liquid expansion (SFELE) progenitor growth assay of sorted BFU-E cells; conditions: for Total cell expansion from 1000 BFU-E cells: CD71 10% low BFU-E cells, SFELE medium
# Method: (§1) FIGS. 1A-1F. […] Error bars show one standard deviation. […] Error bars show one standard deviation. […] Shown is the fraction of c-kit+ cells after 72 hours. […] Cell numbers in each clone were estimated under the microscope on Day 8.
# (§2) FIGS. 3A-3B. […] The experimental protocol was similar to that used in FIGS. 1A and B except that the CFU-E and BFU-E cells were purer (CD71 and CD24a^20% high and CD71 and CD24a^10% low, respectively). […] (A) Proliferation of sorted CFU-E cells. […] Error bars show one standard deviation. (B) Proliferation of sorted BFU-E cells. […] Error bars show one standard deviation.
# FIG. 4. […] Cells were counted from day 4 until the day cell counts dropped.
# (A) The total number of cells formed from 1000 BFU-E cells at different time points. […] Standard deviation between four separate biological experiments is shown in parenthesis (n/d=not determined).
# (§3) We developed a modified version of the serum free erythroid liquid expansion culture (SFELE) medium described by Dolzning et al. (Dolznig et al., 2006).
# [2] = tested on: miRNA expression in BFU-E cells; experiment: Small RNA (miRNA) sequencing of BFU-E cells cultured 4 hours with or without Dex; conditions: 100 nM Dex
# Source text: FIGS. 2A-2B. The effect of glucocorticoids on miRNA and mRNA expression in BFU-E cells determined by next generation sequencing. […] Both mRNAs and miRNAs were subjected to Illumina deep sequencing. […] (B) A plot similar to that in A for expression of individual mRNAs. mRNA expression was normalized using the RPKM method, which determines the relative expression of each gene to all expressed genes by giving each gene an RPKM count (number of uniquely aligning reads per kb exon per million total reads).
# B) Percent of total miRNA expression of the 20 highest expressed miRNAs. C) Percent of total miRNA expression of the 20 highest expressed miRNA-families.
# Differences in miRNA expression were determined as described previously (Baek et al., 2008). […] Since several miRNAs contain the same seed sequence and therefore target the same group of mRNAs we also compared changes in expression of miRNA families.
# Small RNA sequencing was performed essentially as described (Grimson et al., 2008). […] The adaptor sequence was stripped and aligned to mouse NCBI build 37 (mm9) using ELAND. Reads mapping to the known microRNA hairpins were used for downstream analysis. Reads mapping to miRNA with more than one known copy in the genome were divided equally between the different loci. miRNA analysis methods to compute miRNA expression counts were derived from previously published methods (Baek et al., 2008).
# CFU-E cells = experiment: SFELE progenitor growth assay of sorted CFU-E cells; conditions: 100 nM Dex
# Method: as §1, §2, §3
# BFU-E cells [3] = experiment: Colony forming assays of sorted BFU-E fractions (Table S2)
# Source text: Separation of BFU-E and CFU-E cells by expression of CD71, CD24a or both CD71 and CD24a. C-kit positive BFU-E and CFU-E cells were sorted from FLEP cells based on expression of CD71, CD24a or both CD71 and CD24a. In all experiments the BFU-E fraction was the subset of c-kit^positive FLEP cells with the 10% lowest expression of CD71 and/or CD24a, while the CFU-E fraction was the subset with 20% highest expression of CD71 and/or CD24a. Sorted BFU-E and CFU-E populations were subjected to colony forming assays under two different conditions. […] The number of CFU-E colonies (±standard deviation) is shown. The sorted “BFU-E” populations mostly formed small CFU-E clusters rather than single CFU-E colonies in these assays. These CFU-E clusters are formed by precursors to CFU-Es and were scored separately as multi-CFU-Es. The number of “multi-CFU-Es” is not shown since these cells likely represent the same cells as those forming small BFU-E colonies.
# The potential of the sorted cells to form large BFU-E, small BFU-E, CFU-G/M/Mk, and CFU-GEMM colonies (±standard deviation) was determined by a second assay in methyl cellulose containing 10U Epo, 20 nM IL-3, 20 nM IL-6 and 50 nM SCF per mL, and was scored at day 8-9. […] To determine the effect of DMOG, colony assays of sorted BFU-E (CD71 and CD24a^10% low) cells were also performed in the presence of 333 μM DMOG. In agreement with the finding that DMOG enhances BFU-E self-renewal BFU-E colonies were larger with a more immature appearance in the presence of DMOG and Dex. Therefore, in the presence of DMOG and Dex most BFU-E colonies were scored as “large BFU-Es.”
# No GEMM colonies were formed (Table S2).
# Colonies were scored after 3 days. […] The number of hemoglobinized early BFU-E and late BFU-E colonies was determined after 8-9 days following staining with 2,7-Diaminofluorene (Sigma Chemical, St. Louis, Mo.).
# [4] = dose response curves in the absence of DMOG
# [5] = CD24a 10% low cells, 100 nM Dex
# [6] = CD71/CD24a 10% low cells, 100 nM Dex and/or 333 μM DMOG
# [7] = purified CD71 10% low cells, with Dex
structure (smiles),measurement,setting,value
"C[C@@H]1C[C@H]2[C@@H]3CCC4=CC(=O)C=C[C@]4(C)[C@@]3(F)[C@@H](O)C[C@]2(C)[C@@]1(O)C(=O)CO [Dex, dexamethasone]",Increase of total number of cells after the first three days,"BFU-E cells [1]; CD24 and CD71 10% low BFU-E cells, 100 nM Dex and/or 333 μM DMOG",~20 fold
same,"Total cell expansion from 1000 ""BFU-E"" cells, liquid culture","BFU-E cells [1]; CD24 and CD71 10% low BFU-E cells, SFELE, 100 nM Dex and/or 333 μM DMOG, day 1","3,900"
same,"Total cell expansion from 1000 ""BFU-E"" cells, liquid culture","BFU-E cells [1]; CD24 and CD71 10% low BFU-E cells, SFELE, 100 nM Dex and/or 333 μM DMOG, day 2","30,000"
same,"Total cell expansion from 1000 ""BFU-E"" cells, liquid culture","BFU-E cells [1]; CD24 and CD71 10% low BFU-E cells, SFELE, 100 nM Dex and/or 333 μM DMOG, day 3","200,000"
same,"Total cell expansion from 1000 ""BFU-E"" cells, liquid culture","BFU-E cells [1]; CD24 and CD71 10% low BFU-E cells, SFELE, 100 nM Dex and/or 333 μM DMOG, day 4","1,200,000"
same,"Total cell expansion from 1000 ""BFU-E"" cells, liquid culture","BFU-E cells [1]; CD24 and CD71 10% low BFU-E cells, SFELE, 100 nM Dex and/or 333 μM DMOG, day 5","3,500,000"
same,"Total cell expansion from 1000 ""BFU-E"" cells, liquid culture","BFU-E cells [1]; CD24 and CD71 10% low BFU-E cells, SFELE, 100 nM Dex and/or 333 μM DMOG, day 6","7,200,000"
same,"Total cell expansion from 1000 ""BFU-E"" cells, liquid culture","BFU-E cells [1]; CD24 and CD71 10% low BFU-E cells, SFELE, 100 nM Dex and/or 333 μM DMOG, day 7","14,000,000"
same,"Total cell expansion from 1000 ""BFU-E"" cells, liquid culture","BFU-E cells [1]; CD24 and CD71 10% low BFU-E cells, SFELE, 100 nM Dex and/or 333 μM DMOG, day 8","20,000,000"
same,"Total cell expansion from 1000 ""BFU-E"" cells, liquid culture","BFU-E cells [1]; CD24 and CD71 10% low BFU-E cells, SFELE, 100 nM Dex and/or 333 μM DMOG, day 9","25,000,000"
same,"Total cell expansion from 1000 ""BFU-E"" cells, liquid culture","BFU-E cells [1]; CD24 and CD71 10% low BFU-E cells, SFELE, 100 nM Dex and/or 333 μM DMOG, day 10","25,000,000"
same,"Total cell expansion from 1000 ""BFU-E"" cells, liquid culture","BFU-E cells [1]; CD24 and CD71 10% low BFU-E cells, SFELE, 100 nM Dex and/or 333 μM DMOG, day 11","20,000,000"
same,Total cell expansion from 1000 BFU-E cells,"BFU-E cells [1]; 100 nM Dex, 24 h","5,367 (±1,626)"
same,Total cell expansion from 1000 BFU-E cells,"BFU-E cells [1]; 100 nM Dex, 48 h","50,013 (±18,160)"
same,Total cell expansion from 1000 BFU-E cells,"BFU-E cells [1]; 100 nM Dex, 72 h","297,340 (±114,540)"
same,Total cell expansion from 1000 BFU-E cells,"BFU-E cells [1]; 100 nM Dex, 120 h","2,484,148 (±988,022)"
same,"Expansion of BFU-E cells, peak","BFU-E cells [1]; CD71 10% low cells, SFELE, 100 nM Dex, peak at day 8","8,800 fold"
same,Increase of proliferation of sorted BFU-E cells,"BFU-E cells [1]; CD71 and CD24a 10% low cells, SFELE, 100 nM Dex and/or 333 μM DMOG, versus no additions",42 fold
same,Average number of divisions of each BFU-E cell,"BFU-E cells [1]; SFELE, 100 nM Dex",13 times
same,Cell number per original BFU-E cell,"BFU-E cells [1]; SFELE, 100 nM Dex","8,800 cells per original BFU-E cell"
same,Dex concentrations at which a clear effect on CFU-E formation is seen,BFU-E cells [1]; [4],> 2 nM
same,Dex concentrations giving maximum effect on CFU-E formation,BFU-E cells [1]; [4],above 10 nM
same,Dex concentration that supports maximal stimulation of BFU-E proliferation,"BFU-E cells [1]; dose-response, FIG. 1 C and D",10 nM
same,Dex concentrations with little stimulatory effect on BFU-E proliferation,"BFU-E cells [1]; dose-response, FIG. 1 C and D",below 1 nM
same,Increase in expression of the 100 highest expressed miRNAs,[2],≤ 50%
same,Increase in miR-451 expression,[2],49%
same,Average number of erythroblasts formed from each CFU-E cell,CFU-E cells,28
same,"Expansion of sorted CFU-E cells (production of erythroblasts), peak","CFU-E cells; CD71 20% high cells, peak at day 3",28 fold
same,CFU-E colonies,BFU-E cells [3]; [5],96 (±23) colonies per 1000 plated cells
same,CFU-G/M/Meg colonies,BFU-E cells [3]; [5],19 (±6) colonies per 1000 plated cells
same,GEMM colonies,BFU-E cells [3]; [5],0.8 (±2) colonies per 1000 plated cells
same,large BFU-E colonies,BFU-E cells [3]; [5],178 (±28) colonies per 1000 plated cells
same,small BFU-E colonies,BFU-E cells [3]; [5],336 (±27) colonies per 1000 plated cells
same,CFU-E colonies,"BFU-E cells [3]; CD71 10% low cells, 100 nM Dex",66 (±28) colonies per 1000 plated cells
same,CFU-G/M/Meg colonies,"BFU-E cells [3]; CD71 10% low cells, 100 nM Dex",20 (±21) colonies per 1000 plated cells
same,GEMM colonies,"BFU-E cells [3]; CD71 10% low cells, 100 nM Dex",0 colonies per 1000 plated cells
same,large BFU-E colonies,"BFU-E cells [3]; CD71 10% low cells, 100 nM Dex",222 (±84) colonies per 1000 plated cells
same,small BFU-E colonies,"BFU-E cells [3]; CD71 10% low cells, 100 nM Dex",289 (±85) colonies per 1000 plated cells
same,CFU-E colonies,BFU-E cells [3]; [6],33 (±10) colonies per 1000 plated cells
same,CFU-G/M/Meg colonies,BFU-E cells [3]; [6],7 (±2) colonies per 1000 plated cells
same,GEMM colonies,BFU-E cells [3]; [6],0 colonies per 1000 plated cells
same,large BFU-E colonies,BFU-E cells [3]; [6],412 (±23) colonies per 1000 plated cells
same,small BFU-E colonies,BFU-E cells [3]; [6],251 (±40) colonies per 1000 plated cells
same,Cells forming CFU-E colonies,BFU-E cells [3]; [7],6.6%
same,Cells forming CFU-G/M/Meg colonies,BFU-E cells [3]; [7],2.0%
same,Cells forming early BFU-Es,BFU-E cells [3]; [7],22%
same,Cells forming late BFU-E colonies,BFU-E cells [3]; [7],29%
